These results are taken from the METLIN SMRT retention time set (Domingo-Almenara et al. 2019).

The series can be described thus: gradient 5% acetonitrile 3 min, to 50% in 2 min, to 85% in 15 min, held 3 min, 100 µL/min. To be noted: column: Zorbax Extend-C18 2.1 x 50 mm; eluents: water / acetonitrile, 0.1% formic acid. The method, boiled down: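 Standards, all pure, were combined into mixtures of ~100 molecules and run at 100 μL/min on a Zorbax Extend-C18 column (2.1 × 50 mm, 1.8 μm) with water and acetonitrile, each containing 0.1% formic acid. A coupled quadrupole time-of-flight mass spectrometer operated in positive and negative ionization mode. Retention time values come from computationally picked adduct peaks, each inspected manually.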
`O=C(NCc1ccccn1)C1CCN(S(=O)(=O)c2cc(C(=O)N3CCCC3)cs2)CC1` showed an RP-LC retention time of 609 s.
Under `CCS(=O)(=O)c1nc2ccc(NS(=O)(=O)c3ccc(C(C)C)cc3)cc2s1` stands 975 s; under `O=C(Nc1ccc(C(=O)N2CCN(c3ccccn3)CC2)cc1)C1=CSCCO1`, 611 s; under `CN(CC1CCOCC1)S(=O)(=O)c1cccc(C(F)(F)F)c1`, 906 s.
Take `Brc1ccc(-c2nc(-c3ccc4nncn4c3)no2)cc1`: the RP-LC retention time stood at 913 s.
As for `O=C(NCc1ccccc1Cl)c1c[nH]c2ncccc12`, the RP-LC retention time was determined as 708 s.
`Cc1nc(CC(=O)Nc2ccc(F)cc2Cl)sc1C(=O)NC1CC1`: the RP-LC retention time stood at 740 s.
Turning to `COc1ccc(Cl)cc1S(=O)(=O)Nc1ccc2nc(N3CCN(C)CC3)cc(C(=O)O)c2c1`, the RP-LC retention time was determined as 604 s.
In the case of `CCOC(=O)c1cnn2c(SC)ncnc12`, the RP-LC retention time was found to be 776 s.
Under `CCOC(=O)c1c(S(=O)(=O)N2CCC(C(=O)Nc3ccccc3)CC2)c(C)n(CC)c1C` stands 795 s; under `COc1ccc(-c2nc(-c3ccc4ncn(C(C)C)c4c3)no2)cc1OC`, 727 s; under `O=C1CCCc2cc(S(=O)(=O)N3CCCC(C(=O)N4CCN(c5ccccc5)CC4)C3)ccc2N1` (centres undefined), 788 s.
For `CCc1ccccc1NC(=O)Cn1c(CC)nc2c(c1=O)CN(Cc1ccccc1)CC2` the value was 666 s; for `O=C1CO[C@@H](C(=O)O)[C@H](c2ccccc2)N1`, 576 s; for `COc1cc(OC)c(NC(=O)N2CCC(n3c(C(F)(F)F)nc4cccnc43)CC2)cc1Cl`, 956 s.
`COc1cccc2sc(N(C)CC(=O)NCCc3cccs3)nc12` returned an RP-LC retention time of 772 s.
`CCc1nc2c(NC(=O)c3ccccc3Br)cccn2n1`: the RP-LC retention time was 773 s.
With `Cn1cnc(C(=O)N2CC(F)(F)C[C@H]2c2nc(C3CC3)no2)c1`, the RP-LC retention time stood at 667 s.
With `Cc1nn(-c2cc(N3CCOCC3)ncn2)c(C)c1CCC(=O)N1CCN(c2ccccn2)CC1`, the RP-LC retention time was determined as 618 s.
Under `Cc1ccc(CNC(=O)Cn2c3ccccc3c3cnn(C)c(=O)c32)o1` stands 925 s.
As to `Cc1ccc(CSc2nc(CC(=O)N3CCC(C(N)=O)CC3)cs2)cc1`, the RP-LC retention time worked out at 680 s.
With `CCc1ccc(NC(=O)Cn2c(=O)nc(N3CCC(C)CC3)c3ccccc32)cc1`, the RP-LC retention time worked out at 921 s.
The molecule `COc1cccc(N2C(=O)C3N=NN(Cc4nc(-c5ccc(C)cc5)no4)C3C2=O)c1` (centres undefined) came in with an RP-LC retention time of 990 s.
The molecule `CCCn1c(CCc2ccccc2NS(=O)(=O)CCC)nc2ccccc21` showed an RP-LC retention time of 708 s.
For the molecule `O=C(CCc1c(-c2ccc(F)cc2)nc2ccccn12)N1CCN(c2ccccc2)CC1`, the RP-LC retention time was 693 s.
`COC(=O)c1nnn(-c2ccc(C)cc2)c1C(=O)OC` showed an RP-LC retention time of 623 s.
Under `CCOC(=O)C1CCN(c2nc(-c3ccc(Cl)cc3)nc3ccccc23)CC1` stands 936 s; under `COc1ncc(C(=O)Nc2ccc(C)cc2C)c(C)n1`, 736 s; under `Cc1cccc(NC(=O)N2CCC(c3cc(N)on3)CC2)c1C`, 685 s.
For `Cc1ccc(C(=O)N2C[C@@H](F)C[C@H]2C(=O)N2CCOCC2)cc1` the value was 621 s; for `CCOC(=O)c1c(S(=O)(=O)N2CCC(C(=O)NCc3ccccc3)CC2)c(C)n(C)c1C`, 795 s.
For `O=C(Cn1ccc2sccc2c1=O)Nc1ccc(Cl)cc1`, the RP-LC retention time turned out to be 776 s.
Under `Cc1cc(C)cc(NC(=O)Cn2nc(N3CCCCCC3)c3ccccc3c2=O)c1` stands 1110 s.
Molecule `O=C(Nc1ccccc1)C1CCCN(c2ncnc3c2nc2n3CCCCC2)C1` (centres undefined) returned an RP-LC retention time of 774 s.
`CCCCn1cc(S(=O)(=O)Nc2cccc(OC)c2)c2cccnc21` showed an RP-LC retention time of 912 s.
In turn, `CS(=O)(=O)N(Cc1cccnc1)C1CN(Cc2ccc(F)c(F)c2)C1` registered an RP-LC retention time of 571 s.
Take `COc1ccc(OC)c(NC(=O)Cn2c(C)cc(-c3nnc(C4CCC4)o3)c2C)c1`: the RP-LC retention time stood at 924 s.
For the molecule `O=C(NCCCc1ccccc1)c1nc(Cn2c(=O)oc3ccccc32)no1`, the RP-LC retention time was found to be 952 s.
For `CCn1cc(C(=O)NCc2cccc(C)c2)c2cccnc21` the value was 812 s.
Under `COc1cc2c(cc1OC)C(C(=O)N(C)c1ccc(Cl)cc1)C(c1cccnc1)N(C)C2=O` (centres undefined) stands 674 s; under `COc1ccc(CCNC(=O)CSc2cc(N3CCC(C(=O)NC4CC4)CC3)ncn2)cc1OC`, 624 s.
In turn, `CCc1nncn1C1CCN(C(=O)Nc2ccc(Cl)cc2F)C1` (centres undefined) gave an RP-LC retention time of 638 s.
As to `Cc1ccc(CCC(=O)Nc2nc(-c3ccc4c(c3)N(C)C(=O)C(C)O4)cs2)cc1` (centres undefined), the RP-LC retention time came out at 1070 s.
The molecule `Cc1ccc(-c2ncccc2CNS(=O)(=O)c2cc(F)ccc2C)cc1` yielded an RP-LC retention time of 738 s.
As for `Cc1csc(-c2ccc(N3CCN(C(=O)COc4ccc(F)cc4)CC3)nc2)n1`, the RP-LC retention time is 856 s.
Take `O=C(NC1CCCC1)c1ccc2c(c1)CCN2C(=O)C1CC1`: the RP-LC retention time came to 751 s.
For `CCN1CCCn2cc(S(=O)(=O)N3CCN(c4ccccc4Cl)CC3)cc2C1=O` the value was 912 s; for `CC(C)n1c(CCNC(=O)c2ccccc2)nc2cccnc21`, 640 s; for `CCC(C)NS(=O)(=O)c1ccc(-c2c(C)noc2C)cc1` (centres undefined), 936 s.
Under `Cc1ccc(-c2nc3ccc(C)cn3c2Nc2ccccc2C)cc1` stands 788 s; under `COc1cccc(-c2nc(COc3cc(C)c4c(C)nn(C)c4n3)c(C)o2)c1OC`, 1070 s; under `CCCN1CCN(c2ncc3c(n2)CCN(Cc2ccc(OCC)c(OCC)c2)C3)CC1`, 579 s.
The molecule `Cc1ccc(-c2nnc(-c3cccc(S(=O)(=O)N4CCC(C(=O)O)CC4)c3)o2)cc1` had an RP-LC retention time of 860 s.
In turn, `COC(=O)c1cc2c(=O)n(-c3ccc(OC)cc3OC)ccc2nc1C` yielded an RP-LC retention time of 803 s.
In turn, `COCCN1C(=O)c2oc3ccc(F)cc3c(=O)c2C1c1ccc([N+](=O)[O-])cc1` (centres undefined) returned an RP-LC retention time of 803 s.
`Cc1ccc(C)c(S(=O)(=O)NCc2ccc(C(=O)N3CCCCC3C)cc2)c1` (centres undefined) registered an RP-LC retention time of 961 s.
For `Cn1c(C(=O)Nc2ccccc2F)cc2c(=O)oc3ccccc3c21` the value was 919 s; for `CN1CCN(C(CNC(=O)C(=O)Nc2ccc(F)cc2F)c2ccc3c(c2)OCO3)CC1` (centres undefined), 685 s; for `CCCN1CCN(CCCNC(=O)C2CCN(Cc3cn(C)c4ccc(OC)cc34)CC2)CC1`, 533 s.
For `Cc1ccc(-c2cn3c(CC(=O)N4CCN(c5cc(Cl)ccc5C)CC4)csc3n2)cc1C`, the RP-LC retention time came to 1130 s.
As for `Cn1cc(-c2nc(C(=O)NC3CCCCCC3)cs2)c2cccnc21`, the RP-LC retention time is 1040 s.
For `CCOC(=O)c1ccc(NC(=O)C2CCN(S(=O)(=O)c3ccc4[nH]c(=O)ccc4c3)CC2)cc1` the value was 783 s; for `CCCN1C(=O)c2cc(S(=O)(=O)Nc3ccc(OC)cc3)ccc2Oc2cccnc21`, 1030 s.
In turn, `COc1ccc(C2(C(=O)N3CCCC3c3nc(-c4ccccc4Cl)no3)CC2)cc1` (centres undefined) registered an RP-LC retention time of 1070 s.
Consider `COc1ccc(CNC(=O)Cn2c(=O)c(CCC(=O)NCC(C)C)nc3ccccc32)cc1`, for which the RP-LC retention time was 762 s.
On to `O=C(NCCN1CCCC1)c1cccc(N2CCNC(c3ccccc3)C2)n1` (centres undefined), for which the RP-LC retention time was determined as 553 s.
With `O=c1c2cnc3nc(-c4ccccc4)nn3c2ccn1CCc1c[nH]c2ccccc12`, the RP-LC retention time turned out to be 925 s.
`O=C(Cn1nc(C2CC2)c2cnn(-c3ccc(F)cc3)c2c1=O)NCC1CCCO1` (centres undefined) registered an RP-LC retention time of 729 s.
Regarding `CC(C)(Oc1ccc(Cl)cc1)C(=O)NC1CCCCC1N1C(=O)CSC1=O` (centres undefined), the RP-LC retention time was 972 s.
`COCCNC(=O)CC1Sc2ncccc2N(CC(C)C)C1=O` (centres undefined): the RP-LC retention time came out at 659 s.
Under `CCOC(=O)c1ccc(NC(=O)Cc2csc3nc(-c4ccc(C)c(C)c4)cn23)cc1` stands 922 s.
`CCCNC(=O)c1ccc2c(=O)n(Cc3ccccc3)c(N(CC)CC)nc2c1` came in with an RP-LC retention time of 997 s.
Under `COCCNC(=O)C1CCN(c2ncnc3c2oc2ccccc23)CC1` stands 617 s; under `Cc1nc2cc(NC(=O)c3cn(C)nn3)ccc2s1`, 629 s.
For `Cc1ccccc1-c1nnc(CSc2nnc(NC(=O)c3cccc(F)c3)s2)o1` the value was 976 s.
`COc1cc(NC(=O)Cn2nc(N(C)C)c3ccccc3c2=O)cc(OC)c1`: the RP-LC retention time came to 836 s.
`CC(=O)Nc1ccc(-n2cnc(C(=O)N3CCN(c4cccc(Cl)c4)CC3)c2)nc1` showed an RP-LC retention time of 749 s.
`COc1ccc(NC(=O)Cn2c(N)nc(C)c(C)c2=O)cc1` returned an RP-LC retention time of 595 s.
`Cc1ccc(NC(=O)N2CCCC2C(=O)NC2CC2)cc1` (centres undefined) returned an RP-LC retention time of 668 s.
